Data: patent publication US20130084329A1, “COMPOSITIONS FOR EXTERNAL APPLICATION, CONTAINING ADENOSYLCOBALAMIN FOR IMPROVEMENT OF SKIN DISEASES” (HANALL BIOPHARMA CO., LTD., priority 2005, published 2013)
Where “and” joins values, the source holds several entries; their conditions need not be identical. Equal values may be shown once.

Tested on: CD4+ T cell (C57BL/6) co-cultured with dendritic cell (BALB/C)
Experiment: Inhibition test of T-cell proliferation, 1 way mixed lymphocyte reaction (MLR), H3-thymidine incorporation
Format: cell-based, mouse
Conditions: for % of inhibition = [cpm (untreated) - cpm(treated)] / cpm (untreated): T cell proliferation, from photo-nonexposed CPM
Text: It is typically known that the increase of CD4^+ T cells is observed in atopic dermatitis lesion, and cytokines secreted from CD4^+ T cells make the condition of atopic dermatitis worse (DirkJan Hijnen et al., J Invest Dermatol 125:1149-1155, 2005). Therefore, we tried to determine the therapeutic effectiveness of cobalamin derivatives for treatment of atopic dermatitis by examining the changes of T-cell proliferation before and after photolysis of cobalamin derivatives.
When the T cell separated from one mouse strain and the dendritic cell (DC, antigen presenting cell) separated from another mouse strain are mixed together, the immune response by the T cell occurs. This immune response is a tissue incompatibility reaction due to the difference of the genes of MHC molecules of the two strains.
In this experiment, the target cell (DC) derived from BALB/C strain and the CD4^+ T cell (the responder) derived from C57BL/6 (B6) strain are mixed and co-cultured to induce a 1 way MLR. In this process, several types of cobalamin derivatives (cyanocobalamin, hydroxocobalamin, methylcobalamin, adenosylcobalamin) are treated, and then the intensities of the immune response are measured by comparing the T cell proliferation for each of the cobalamin derivative-treated group.
1) Bone marrow derived dendritic cells were isolated from 8 weeks BALB/c mouse as follows.
2) The femur and tibiae were separated from a mouse, and then soaked in PBS. The muscle tissues were removed from them. Then, the bones were soaked in 70% EtOH for 2 minutes for sterilization, and then EtOH was washed off with PBS.
3) A needle of a 10 ml syringe filled with PBS was inserted into ends of the bones and then PBS was injected into the bones to isolate the bone marrow.
4) The obtained bone marrow was made into a single cell suspension by pipetting.
5) 1˜1.5×10^7 of leukocytes were isolated per one femur or one tibia.
6) Culture medium was prepared (RPMI-1640+Penicillin/Streptomycin, L-Glutamin, 2-MercaptoEtOH, 10% Fetal Bovine Serum, Recombinant mouse GM-CSF). 2×10^6 of BM leukocytes were plated onto 100 mm Petri dish with 10 ml of the culture medium. At this time, […] (in case of 20 ng/ml, 5×10^6 U/mg) of rmGM-CSF was added. (Day 0)
7) Day 3, 10 ml of culture medium (including 200 U/ml GM-CSF) was added.
8) Day 6, culture medium replacement: 10 ml of culture medium from the culture plate was taken, and then centrifuged. The obtained cells were released in a fresh medium containing GM-CSF 200 U/ml, and then they were put back into the original culture plate. Through this process, half of the entire culture medium could be changed to a new medium.
9) Day 8, culture medium replacement: Half of the culture medium was replaced in the same way as day 6.
10) Day 9, after collecting BM-DCs by pipetting carefully, and centrifuging at 300 g/RT/5 min, they were poured into 10 ml of fresh culture medium. The BM-DCs were plated on 100 mm tissue culture plate. 100 U/ml of rmGM-CSF and 1 μg/ml of LPS were added to the culture medium. The BM-DCs were fully maturated by culturing for an extra day.
1) The spleen was separated out from C57BL/6 mouse, and was ground by using the nylon mesh in PBS and then centrifuged at 300×g for 4 min.
2) The obtained cell pellet was treated with 5 ml of ACK RBC lysing solution for 5 minutes in RT, and then washed with PBS.
3) After resuspending the cells in 500 μl of MACs buffer (PBS+EDTA/BSA), the cells were stained with 50 μl of anti-CD4 microbead. Then, the CD4^+ T cell (1×10^7 cells) were separated from the cells according to the manual of MACS kit (Miltenyi Company).
1) The experiment for determining MLR response was designed to comprise control group, photo-exposed group, and photo-nonexposed group as follows. Each group was tested in triplicate according to concentration and substance on 3 wells. […]

[1] = 10 μM (lowest concentration), 10 µM
[2] = 500 μM (highest concentration), 500 µM

| Compound | % of inhibition = [cpm (untreated) - cpm(treated)] / cpm (untreated) [1] | % of inhibition = [cpm (untreated) - cpm(treated)] / cpm (untreated) (30 μM) | % of inhibition = [cpm (untreated) - cpm(treated)] / cpm (untreated) (100 μM) | % of inhibition = [cpm (untreated) - cpm(treated)] / cpm (untreated) [2] | radioactivity (CPM), single wells of triplicate (photo-nonexposed group, 10 μm) | radioactivity (CPM), single wells of triplicate (photo-nonexposed group, 30 μm) | radioactivity (CPM), single wells of triplicate (photo-nonexposed group, 500 μm) | radioactivity (CPM), single wells of triplicate (photo-nonexposed group, 100 μm) | also measured |
| --- | --- | --- | --- | --- | --- | --- | --- | --- | --- |
| C/C1=C2/[N-][C@H]([C@H](CC(N)=O)[C@@]2(C)CCC(=O)NC[C@@H](C)OP(=O)([O-])O[C@H]2[C@@H](O)[C@@H](n3cnc4cc(C)c(C)cc43)O[C@@H]2CO)[C@]2(C)N=C(/C(C)=C3N=C(/C=C4N=C1[C@@H](CCC(N)=O)C\4(C)C)[C@@H](CCC(N)=O)[C@]\3(C)CC(N)=O)[C@@H](CCC(N)=O)[C@]2(C)CC(N)=O.[CH2-][C@H]1O[C@@H](n2cnc3c(N)ncnc32)[C@H](O)[C@@H]1O.[Co] [A-co, adenosylcobalamin] | 57.9% and 58.03% and 60.21% | 66.99% and 77.79% and 83.85% | 89.85% and 91.31% and 95.18% | 96.51% and 97.48% and 98.07% | 19094 CPM and 19033 CPM and 18047 CPM | 14064 CPM and 10071 CPM and 7326 CPM | 1585 CPM and 1141 CPM and 875 CPM | – | radioactivity (CPM), single wells of triplicate (photo-exposed group (under the light for 1 hr before treatment), 3 μM, listed as Photo-A-co): 26305 CPM and 14772 CPM and 24306 CPM; radioactivity (CPM), single wells of triplicate (photo-exposed group (under the light for 1 hr before treatment), 10 μM, listed as Photo-A-co): 2225 CPM and 3123 CPM and 1922 CPM; radioactivity (CPM), single wells of triplicate (photo-exposed group (under the light for 1 hr before treatment), 30 μM, listed as Photo-A-co): 997 CPM and 1091 CPM and 1391 CPM; radioactivity (CPM), single wells of triplicate (photo-exposed group (under the light for 1 hr before treatment), 100 μM, listed as Photo-A-co): 696 CPM and 1259 CPM and 1333 CPM |
| C/C1=C2/[N-][C@H]([C@H](CC(N)=O)[C@@]2(C)CCC(=O)NC[C@H](C)OP(=O)([O-])O[C@H]2[C@@H](O)[C@@H](n3cnc4cc(C)c(C)cc43)O[C@@H]2CO)[C@]2(C)N=C(/C(C)=C3N=C(/C=C4N=C1[C@@H](CCC(N)=O)C\4(C)C)[C@@H](CCC(N)=O)[C@]\3(C)CC(N)=O)[C@@H](CCC(N)=O)[C@]2(C)CC(N)=O.[CH3-].[Co+3] [M-co, methylcobalamin] | – | – | – | 49.98% and 36.23% and 45.1184% | 37594 CPM and 43624 CPM and 44951 CPM | 36641 CPM and 28896 CPM and 40298 CPM | 22687 CPM and 28924 CPM and 24891 CPM | 37066 CPM and 30678 CPM and 39514 CPM | radioactivity (CPM), single wells of triplicate (photo-exposed group (under the light for 1 hr before treatment), 3 μM, listed as Photo-M-co): 33467 CPM and 32885 CPM and 50368 CPM; radioactivity (CPM), single wells of triplicate (photo-exposed group (under the light for 1 hr before treatment), 10 μM, listed as Photo-M-co): 42973 CPM and 43693 CPM and 41162 CPM; radioactivity (CPM), single wells of triplicate (photo-exposed group (under the light for 1 hr before treatment), 30 μM, listed as Photo-M-co): 18844 CPM and 28639 CPM and 29522 CPM |
| cyanocobalamin [C-co] | 4.28% and 11.95% and 9.071% | – | – | – | 43413 CPM and 39935 CPM and 41240 CPM | 42882 CPM and 30722 CPM and 40187 CPM | 36303 CPM and 40107 CPM | 41663 CPM and 48408 CPM and 39928 CPM | radioactivity (CPM), single wells of triplicate (photo-exposed group (under the light for 1 hr before treatment), 3 μM, listed as Photo-C-co): 41161 CPM and 57338 CPM and 56253 CPM; radioactivity (CPM), single wells of triplicate (photo-exposed group (under the light for 1 hr before treatment), 10 μM, listed as Photo-C-co): 39141 CPM and 36381 CPM and 39492 CPM; radioactivity (CPM), single wells of triplicate (photo-exposed group (under the light for 1 hr before treatment), 30 μM, listed as Photo-C-co): 38702 CPM and 34451 CPM and 34078 CPM; radioactivity (CPM), single wells of triplicate (photo-exposed group (under the light for 1 hr before treatment), 100 μM, listed as Photo-C-co): 50511 CPM and 27692 CPM and 30567 CPM |
| C/C1=C2/[N-][C@H]([C@H](CC(N)=O)[C@@]2(C)CCC(=O)NC[C@@H](C)OP(=O)([O-])O[C@H]2[C@@H](O)[C@@H](n3cnc4cc(C)c(C)cc43)O[C@@H]2CO)[C@]2(C)N=C(/C(C)=C3N=C(/C=C4N=C1[C@@H](CCC(N)=O)C\4(C)C)[C@@H](CCC(N)=O)[C@]\3(C)CC(N)=O)[C@@H](CCC(N)=O)[C@]2(C)CC(N)=O.[Co+3].[OH-] [H-co, hydroxocobalamin] | – | 25.76% and 23.13% and 24.28% | 37.0706% and 42.13% and 34.41% | 67.35% and 75.19% and 70.9% | 41967 CPM and 33493 CPM and 38243 CPM | 33669 CPM and 34662 CPM and 34340 CPM | 14806 CPM and 11254 CPM and 13198 CPM | 28541 CPM and 26247 CPM and 29747 CPM | radioactivity (CPM), single wells of triplicate (photo-exposed group (under the light for 1 hr before treatment), 3 μM, listed as Photo-H-co): 52932 CPM and 46313 CPM and 40358 CPM; radioactivity (CPM), single wells of triplicate (photo-exposed group (under the light for 1 hr before treatment), 10 μM, listed as Photo-H-co): 42615 CPM and 39452 CPM and 33765 CPM; radioactivity (CPM), single wells of triplicate (photo-exposed group (under the light for 1 hr before treatment), 30 μM, listed as Photo-H-co): 34824 CPM and 37105 CPM and 32225 CPM; radioactivity (CPM), single wells of triplicate (photo-exposed group (under the light for 1 hr before treatment), 100 μM, listed as Photo-H-co): 37189 CPM and 23765 CPM and 30994 CPM |
